Counter-ions that a name gives are not always drawn.
Biological target: T1, Bradykinin receptor (Cavia porcellus, UniProt O70526)
T1 construct: The ileum was removed and homogenized in buffer; from tissue; host or cells: guinea pig ileum, crude membrane suspension (male Hartley strain, given 'Hartly' in the source)
T1 sequence (O70526 1-372): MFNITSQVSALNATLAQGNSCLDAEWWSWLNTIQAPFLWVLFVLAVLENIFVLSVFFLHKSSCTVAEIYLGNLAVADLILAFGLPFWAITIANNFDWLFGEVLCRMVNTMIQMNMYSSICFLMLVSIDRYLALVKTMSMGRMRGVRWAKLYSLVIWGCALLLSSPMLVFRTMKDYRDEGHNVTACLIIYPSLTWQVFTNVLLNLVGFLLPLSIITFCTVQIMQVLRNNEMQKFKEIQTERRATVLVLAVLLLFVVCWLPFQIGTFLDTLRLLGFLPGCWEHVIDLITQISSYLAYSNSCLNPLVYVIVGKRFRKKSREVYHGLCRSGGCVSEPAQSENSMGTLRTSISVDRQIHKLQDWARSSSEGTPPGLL
Assay: 3H-Bradykinin receptor binding (crude ileum membrane)
Parameters: species or system guinea pig (male Hartly strain)
Settings: concentration: 1 × 10^-5 M; 0.06 nM 3H-Bradykinin; guinea pig ileum membrane; room temperature, 60 minutes
Method: ^3 H-Bradykinin receptor binding
(a) Crude ileum membrane preparation
Male Hartly strain guinea pigs were sacrificed by decapitation. The ileum was removed and homogenized in buffer (50 mM trimethylaminoethanesulfonic acid (TES), 1 mM 1,10-phenanthroline pH 6.8). The homogenate was centrifuged (1000 xg, 20 minutes) to remove tissue clumps and the supernatant was centrifuges (100,000 xg, 60 minutes) to yield a pellet. The pellet was resuspended in buffer (50 mM TES, 1 mM 1,10-phenanthroline,140 mg/l bacitracin, 1 mM dithiothreiol, 0.1% bovine serum albumin pH 6.8) and homogenized with a glass-teflon homogenizer to yield suspension which was referred to as crude membrane suspension. The obtained membrane suspension was stored at -80° C. until use.
(b) ^3 H-Bradykinin binding to the membrane
The frozen crude membrane suspension was thawed. In binding assays, ^3 H-Bradykinin (0.06 nM) and drug (1×10^-5 M) were incubated with 50 μl of the membrane suspension at room temperature for 60 minutes in a final volume of 250 μl. Separation of receptor-bound from free 3H-Bradykinin is achieved by immediate filtration under vacuum and washed three times with 5 ml of ice-cold buffer (50 mM Tris-HCl pH 7.5). Non-specific binding was defined as binding in the presence of 0.1 μM Bradykinin. The radioactivity retained on rinsed filters was determined by a liquid-scintillation counter.

CNC(=O)c1ccc(/C=C/C(=O)NCC(=O)N(C)c2ccc(Cl)c(COc3cccc4c3nc(C)n4C)c2Cl)cc1 [Example 7, 4-[2,6-dichloro-3-[N-methyl-N-[4-(methyl-carbamoyl)cinnamoylglycy]amino]benzyloxy]-1,2-dimethyl-1H-benzimidazole]
Inhibition % of ^3 H-Bradykinin binding: 99%

CNC(=O)c1ccc(/C=C/C(=O)NCC(=O)N(C)c2ccc(Cl)c(COc3cccc4c(C)c(C)oc34)c2Cl)cc1 [15-(20), 7-[2,6-Dichloro-3-[N-[4-(methylcarbamoyl)cinnamoylglycyl]-N-methylamino]benzyloxy]-2,3-dimethylbenzofuran]
Inhibition % of ^3 H-Bradykinin binding: 98%

CNC(=O)c1ccc(/C=C/C(=O)NCC(=O)N(C)c2ccc(C)c(COc3cccc4c3nc(C(C)=O)n4C)c2C)cc1 [15-(9) hydrochloride]
Inhibition % of ^3 H-Bradykinin binding: 94%
